Experimental data published in ChEMBL document CHEMBL1201862, “PubChem BioAssay data set” (2004).
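Growth conditions: 96-well plates. Treatment: test compound, 48 hours, 5 concentrations. Analysis: linear interpolation between bracketing concentrations; unreached endpoints set to highest concentration. The concentration for 50% growth inhibition is given as GI50.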 Activity calls are given as the source filed them. Cut-off read from the data, not from the text of the source: active = GI50 up to about 1.1 µM and inactive = higher.

Assays:
Assay in all cases: growth of human tumour cells (NCI), 48 h
SF-268 = tested on: SF-268
NCI-H23 = tested on: NCI-H23
T47D = tested on: T47D
NCI-H226 = tested on: NCI-H226
UACC-257 = tested on: UACC-257
A549 = tested on: A549
MDA-MB-435 = tested on: MDA-MB-435
NCI/ADR-RES = tested on: NCI/ADR-RES
HOP-92 = tested on: HOP-92
CAKI-1 = tested on: CAKI-1
SF-539 = tested on: SF-539
OVCAR-8 = tested on: OVCAR-8
Hs-578T = tested on: Hs-578T
RPMI-8226 = tested on: RPMI-8226
U-251 = tested on: U-251
HL-60 = tested on: HL-60
SW-620 = tested on: SW-620
SNB-75 = tested on: SNB-75
LOX IMVI = tested on: LOX IMVI
RXF 393 = tested on: RXF 393
HT-29 = tested on: HT-29
OVCAR-3 = tested on: OVCAR-3
786-0 = tested on: 786-0
M14 = tested on: M14
Malme-3M = tested on: Malme-3M
SF-295 = tested on: SF-295
UO-31 = tested on: UO-31
TK-10 = tested on: TK-10
SN12C = tested on: SN12C
HOP-62 = tested on: HOP-62
EKVX = tested on: EKVX
HCC 2998 = tested on: HCC 2998
K562 = tested on: K562
SK-MEL-28 = tested on: SK-MEL-28
MDA-N = tested on: MDA-N
DU-145 = tested on: DU-145
SNB-19 = tested on: SNB-19
COLO 205 = tested on: COLO 205
NCI-H460 = tested on: NCI-H460
KM12 = tested on: KM12
MOLT-4 = tested on: MOLT-4
SK-MEL-5 = tested on: SK-MEL-5
SK-OV-3 = tested on: SK-OV-3
CCRF-CEM = tested on: CCRF-CEM
NCI-H522 = tested on: NCI-H522
IGROV-1 = tested on: IGROV-1
SK-MEL-2 = tested on: SK-MEL-2
SR = tested on: SR
OVCAR-5 = tested on: OVCAR-5
HCT-116 = tested on: HCT-116
OVCAR-4 = tested on: OVCAR-4
HCT-15 = tested on: HCT-15
BT-549 = tested on: BT-549
MDA-MB-231 = tested on: MDA-MB-231
ACHN = tested on: ACHN
PC-3 = tested on: PC-3
MCF7 = tested on: MCF7
A498 = tested on: A498
UACC-62 = tested on: UACC-62

Measured: GI50

CCN(CC)S(=O)(=O)c1ccc2[nH]c(NC(=O)OC)nc2c1
47.2 µM: HCT-15
inactive: SF-268 99.3 µM | NCI-H23 > 100 µM | T47D 53.8 µM | NCI-H226 > 100 µM | UACC-257 8.02 µM | A549 94.6 µM | MDA-MB-435 15.3 µM | NCI/ADR-RES > 100 µM | HOP-92 30.1 µM | CAKI-1 > 100 µM | SF-539 30 µM | OVCAR-8 45.1 µM | Hs-578T > 100 µM | RPMI-8226 14 µM | U-251 > 100 µM | HL-60 12.9 µM | SW-620 33.7 µM | SNB-75 42.6 µM | LOX IMVI 42.6 µM | RXF 393 81.3 µM | HT-29 40.9 µM | OVCAR-3 80.9 µM | 786-0 64.4 µM | M14 47.6 µM | Malme-3M > 100 µM | SF-295 85.7 µM | UO-31 46.3 µM | TK-10 6.47 µM | SN12C > 100 µM | HOP-62 40.3 µM | EKVX > 100 µM | HCC 2998 7 µM | K562 32.1 µM | SK-MEL-28 37.3 µM | MDA-N 18.5 µM | DU-145 > 100 µM | SNB-19 70.5 µM | COLO 205 96.8 µM | NCI-H460 49.2 µM | KM12 36.9 µM | MOLT-4 20.4 µM | SK-MEL-5 98.9 µM | SK-OV-3 > 100 µM | CCRF-CEM 25.9 µM | NCI-H522 > 100 µM | IGROV-1 32.4 µM | SK-MEL-2 > 100 µM | SR 28.9 µM | OVCAR-5 > 100 µM | HCT-116 37.4 µM | OVCAR-4 35.6 µM | BT-549 > 100 µM | MDA-MB-231 > 100 µM

COc1nc(N)c(C#N)c(C#N)c1C#N
> 10 µM: HCT-15
inactive: SF-268 > 10 µM | NCI-H23 > 10 µM | UACC-257 > 10 µM | A549 > 10 µM | MDA-MB-435 > 10 µM | NCI/ADR-RES > 10 µM | ACHN > 10 µM | HOP-92 > 10 µM | CAKI-1 > 10 µM | SF-539 > 10 µM | OVCAR-8 > 10 µM | Hs-578T > 10 µM | RPMI-8226 > 10 µM | U-251 > 10 µM | HL-60 > 10 µM | SW-620 > 10 µM | SNB-75 > 10 µM | LOX IMVI > 10 µM | HT-29 > 10 µM | OVCAR-3 > 10 µM | PC-3 > 10 µM | 786-0 > 10 µM | M14 > 10 µM | Malme-3M > 10 µM | SF-295 > 10 µM | MCF7 > 10 µM | TK-10 > 10 µM | SN12C > 10 µM | HOP-62 > 10 µM | HCC 2998 > 10 µM | K562 > 10 µM | SK-MEL-28 > 10 µM | MDA-N > 10 µM | DU-145 > 10 µM | SNB-19 > 10 µM | COLO 205 > 10 µM | KM12 > 10 µM | MOLT-4 > 10 µM | SK-MEL-5 > 10 µM | SK-OV-3 > 10 µM | NCI-H522 > 10 µM | SR > 10 µM | OVCAR-5 > 10 µM | HCT-116 > 10 µM | OVCAR-4 > 10 µM | BT-549 > 10 µM | MDA-MB-231 > 10 µM

c1ccc2sc(C3(N4CCCCCC4)CCCCC3)cc2c1
22.3 µM: HCT-15
inactive: SF-268 25.8 µM | NCI-H23 20 µM | A498 18.1 µM | NCI-H226 22.6 µM | UACC-257 21.5 µM | A549 35.2 µM | MDA-MB-435 25.3 µM | NCI/ADR-RES 21.8 µM | ACHN 30.8 µM | HOP-92 17.6 µM | CAKI-1 36.5 µM | SF-539 23.4 µM | OVCAR-8 29.5 µM | Hs-578T 22.4 µM | U-251 19.2 µM | HL-60 24.2 µM | SW-620 18.2 µM | SNB-75 23.8 µM | LOX IMVI 20.6 µM | RXF 393 17.7 µM | HT-29 15.3 µM | OVCAR-3 16.3 µM | 786-0 19.1 µM | M14 19.3 µM | SF-295 20.1 µM | UO-31 20.3 µM | MCF7 17.8 µM | TK-10 22.8 µM | SN12C 20.6 µM | HOP-62 26.2 µM | EKVX 22.8 µM | HCC 2998 15.5 µM | K562 16.7 µM | SK-MEL-28 26.1 µM | MDA-N 28.9 µM | DU-145 29.4 µM | SNB-19 18.7 µM | COLO 205 16 µM | NCI-H460 18.8 µM | KM12 16.1 µM | MOLT-4 15.6 µM | SK-MEL-5 17.5 µM | SK-OV-3 29 µM | CCRF-CEM 16.7 µM | NCI-H522 21.1 µM | IGROV-1 36.1 µM | OVCAR-5 17.8 µM | UACC-62 20.4 µM | HCT-116 20.3 µM | OVCAR-4 28.4 µM | BT-549 25 µM | MDA-MB-231 27.8 µM

CC1=NN(c2nc(N)nc(NS(=O)(=O)c3cc(C)c(Cl)cc3S)n2)C(C)(C)C1
> 10 µM: HCT-15
inactive: SF-268 > 10 µM | NCI-H23 > 10 µM | T47D > 10 µM | A498 > 10 µM | NCI-H226 > 10 µM | UACC-257 > 10 µM | A549 > 10 µM | NCI/ADR-RES > 10 µM | ACHN > 10 µM | HOP-92 > 10 µM | CAKI-1 > 10 µM | SF-539 > 10 µM | OVCAR-8 > 10 µM | Hs-578T > 10 µM | RPMI-8226 > 10 µM | U-251 > 10 µM | HL-60 > 10 µM | SW-620 > 10 µM | SNB-75 > 10 µM | LOX IMVI > 10 µM | RXF 393 > 10 µM | HT-29 > 10 µM | OVCAR-3 > 10 µM | PC-3 > 10 µM | 786-0 > 10 µM | M14 > 10 µM | Malme-3M > 10 µM | SF-295 > 10 µM | UO-31 > 10 µM | MCF7 > 10 µM | TK-10 > 10 µM | SN12C > 10 µM | HOP-62 > 10 µM | EKVX > 10 µM | HCC 2998 > 10 µM | K562 > 10 µM | SK-MEL-28 > 10 µM | MDA-N > 10 µM | DU-145 > 10 µM | SNB-19 > 10 µM | COLO 205 > 10 µM | NCI-H460 > 10 µM | KM12 > 10 µM | MOLT-4 > 10 µM | SK-MEL-5 > 10 µM | SK-OV-3 > 10 µM | CCRF-CEM > 10 µM | NCI-H522 > 10 µM | IGROV-1 > 10 µM | SK-MEL-2 > 10 µM | SR > 10 µM | OVCAR-5 > 10 µM | HCT-116 > 10 µM | OVCAR-4 > 10 µM | BT-549 > 10 µM

Cc1nc(C(N)=S)sc1C(/C=C/c1ccc(Cl)c(Cl)c1)=N/NC(C)(C)C
inactive: SF-268 > 100 µM | NCI-H23 > 100 µM | NCI-H226 56.5 µM | UACC-257 > 100 µM | A549 > 100 µM | MDA-MB-435 > 100 µM | NCI/ADR-RES > 100 µM | ACHN > 100 µM | HOP-92 > 100 µM | CAKI-1 > 100 µM | SF-539 > 100 µM | OVCAR-8 > 100 µM | Hs-578T > 100 µM | U-251 > 100 µM | HL-60 61.8 µM | SW-620 > 100 µM | SNB-75 > 100 µM | LOX IMVI > 100 µM | RXF 393 > 100 µM | HT-29 > 100 µM | PC-3 > 100 µM | 786-0 > 100 µM | SF-295 > 100 µM | UO-31 33.2 µM | MCF7 > 100 µM | TK-10 > 100 µM | SN12C > 100 µM | EKVX > 100 µM | HCC 2998 > 100 µM | SK-MEL-28 > 100 µM | MDA-N > 100 µM | DU-145 > 100 µM | SNB-19 > 100 µM | COLO 205 > 100 µM | NCI-H460 > 100 µM | KM12 > 100 µM | MOLT-4 22.3 µM | SK-MEL-5 > 100 µM | SK-OV-3 > 100 µM | CCRF-CEM 32.8 µM | NCI-H522 75.3 µM | IGROV-1 > 100 µM | SK-MEL-2 > 100 µM | UACC-62 > 100 µM | HCT-116 > 100 µM | OVCAR-4 88.5 µM | BT-549 > 100 µM | MDA-MB-231 > 100 µM
> 100 µM: HCT-15
